The values that follow come from US20240287082A1, “NEW BENZODIAZEPINE DERIVATIVES AS GABA A GAMMA1 PAM” (Hoffmann-La Roche Inc., priority 2021, published 2024).

Assay [1] has as its target human GABAA α1β3γ2 receptor (Homo sapiens (Human), UniProt P14867+P18507). In words: Radioligand binding assay, competition for [3H]Flumazenil, γ2-containing GABAA subtype α1β3γ2. The protocol: The affinity of compounds at GABAA γ2 subunit-containing receptors was measured by competition for [^3H]Flumazenil (81.1 Ci/mmol; Roche) binding to HEK293F cells expressing human (transiently transfected) receptors of composition α1β3γ2.
Harvested pellets from HEK293F cells expressing the different GABAA γ2 receptor subtypes were resuspended in Mannitol Buffer pH 7.2-7.4 and processed as described above for the cells expressing the GABAA γ1 subunit-containing receptors.
Assays were incubated to equilibrium for 1 hour at 4° C. and harvested onto GF/C uni-filters (Packard) by filtration using a Packard harvester and washing with ice-cold wash buffer (50 mM Tris; pH 7.5). After anhydrousing, filter-retained radioactivity was detected by liquid scintillation counting. Ki values were calculated using Excel-Fit (Microsoft) and are the means of two determinations.

The target of the next assay is h-GABA-A α2β2γ1 (Homo sapiens (Human), UniProt P47869+Q8N1C3). Briefly: Two-electrode voltage clamp electrophysiology in Xenopus oocytes expressing GABAA receptors, modulation of GABA EC20 current. To be noted: for Efficacy (GABA) %: % modulation of GABA EC20 = 100*(Fold increase−1), compound at 30-fold Ki α2β2γ1; for Fold increase h-GABA-A α2β2γ1 oocyte @ 30-fold Ki: Xenopus oocytes, GABA EC20, test compound at approx. 30-fold its Ki α2β2γ1. The assay is classed as cell-based. The protocol:
Xenopus laevis oocytes at maturation stages V-VI were used for the expression of cloned mRNA encoding GABAA receptor subunits. Oocytes ready for RNA micro-injection were bought from Ecocyte, Castrop-Rauxel, Germany and stored in modified Barth's medium (composition in mM: NaCl 88, KCl 1, NaHCO3 2.4, HEPES 10, MgSO4 0.82, CaNO3 0.33, CaCl2 0.33, pH=7.5) at 20° C. until the experiment.
Oocytes were plated in 96-well plates for microinjection using the Roboinject automated instrument (MultiChannelSystems, Reutlingen, Germany). Approximately 50 nL of an aqueous solution containing the RNA transcripts for the subunits of the desired GABAA receptor subtype was injected into each oocyte. […] Oocytes were kept in modified Barth's medium (composition in mM: NaCl 88, KCl 1, NaHCO3 […], HEPES 10, MgSO4 0.82, CaNO3 0.33, CaCl2 0.33, pH=7.5) at 20° C. until the experiment.
Electrophysiological experiments were performed using the Roboocyte instrument (MultiChannelSystems, Reutlingen, Germany) on days 3 to 5 after the micro-injection of mRNA. During the experiment the oocytes were constantly superfused by a solution containing (in mM) NaCl 90, KCl 1, HEPES 5, MgCl2 1, CaCl2 1 (pH 7.4). Oocytes were impaled by two glass microelectrodes (resistance: 0.5-0.8 MΩ) which were filled with a solution containing KCl 1M+K-acetate 1.5 M and voltage-clamped to −80 mV. The recordings were performed at room temperature using the Roboocyte two-electrode voltage clamp system (Multichannelsystem). After an initial equilibration period of 1.5 min GABA was added for 1.5 min at a concentration evoking approximately 20% of a maximal current response (EC20). After another rest interval of 2.5 min GABA was again added evoking a response of similar amplitude and shape. […] Current traces were recorded at a digitization rate of 10 Hz during and shortly before and after the GABA application.
Each compound and concentration was tested on at least 3 oocytes. Different oocytes were used for different compound concentrations.
For the analysis, the digitized current traces of the first and second GABA response were superimposed and, if necessary, rescaled to equal maximal amplitudes. The ratio between the two responses during the time interval of test compound application was calculated point by point. The extremum of the resulting “ratio trace” was taken as the efficacy (“Fold increase”) of the compound expressed as “% modulation of GABA EC20” (100*(Fold increase−1)).

Setting [2] is: HEK293F cell membranes, [3H]Flumazenil 1 nM, mean of two determinations, read-out: Ki h-GABAA α1β3γ2.

Molecules are shown by their SMILES. Read-outs that look alike come from different tables or passages of the source.

As for `CNC(=O)c1cn2c(nc1=O)[C@H](C)N=C(c1c(F)cccc1F)c1c-2ccc(C(F)(F)F)c1Cl` [Example 27, (5S)-8-chloro-7-(2,6-difluorophenyl)-N,5-dimethyl-3-oxo-9-(trifluoromethyl)-5H-pyrimido[1,2-a][1,4]benzodiazepine-2-carboxamide], in assay [1] (setting [2]), the Ki is 9010 nM. Also, on h-GABA-A α2β2γ1, the “Efficacy (GABA) %” value came to 113% and the “Fold increase h-GABA-A α2β2γ1 oocyte @ 30-fold Ki” value was found to be 2.13.
`O=c1ccn2c(n1)CN=C(c1ncccc1F)c1c-2ccc(Cl)c1Cl` [Example 3, 8,9-dichloro-7-(3-fluoro-2-pyridyl)-5H-pyrimido[1,2-a][1,4]benzodiazepin-3-one] returned a Ki in assay [1] of 2190 nM. At h-GABA-A α2β2γ1, the “Efficacy (GABA) %” value came to 192% and the “Fold increase h-GABA-A α2β2γ1 oocyte @ 30-fold Ki” value came to 2.92.
The matching figures for `O=c1ccn2c(n1)CN=C(c1ccccc1F)c1c-2ccc(Cl)c1Cl` [Example 1, 8,9-dichloro-7-(2-fluorophenyl)-5H-pyrimido[1,2-a][1,4]benzodiazepin-3-one]: 716 nM, 92% and 1.92.
For the molecule `CCO/C=C/c1cn2c(nc1=O)[C@H](C)N=C(c1c(F)cccc1F)c1c-2ccc(Cl)c1Cl` [Example 19, (5S)-8,9-dichloro-7-(2,6-difluorophenyl)-2-[(E)-2-ethoxyvinyl]-5-methyl-5H-pyrimido[1,2-a][1,4]benzodiazepin-3-one], the Ki in assay [1] (setting [2]) was 1170 nM. Besides, at h-GABA-A α2β2γ1, the “Efficacy (GABA) %” value came out at 104% and the “Fold increase h-GABA-A α2β2γ1 oocyte @ 30-fold Ki” value worked out at 2.04.
`CCO/C=C/c1cn2c(nc1=O)[C@H](C)N=C(c1c(F)cccc1F)c1c-2ccc(C(F)(F)F)c1Cl` [Example 18, (5S)-8-chloro-7-(2,6-difluorophenyl)-2-[(E)-2-ethoxyvinyl]-5-methyl-9-(trifluoromethyl)-5H-pyrimido[1,2-a][1,4]benzodiazepin-3-one]: in assay [1] (setting [2]), the Ki was 6340 nM. Also, on h-GABA-A α2β2γ1, the “Efficacy (GABA) %” value is given as 89% and the “Fold increase h-GABA-A α2β2γ1 oocyte @ 30-fold Ki” value is 1.89.
On to `CCc1cn2c(nc1=O)[C@H](C)N=C(c1c(F)cccc1F)c1c-2ccc(C(F)(F)F)c1Cl` [Example 11, (5S)-8-chloro-7-(2,6-difluorophenyl)-2-ethyl-5-methyl-9-(trifluoromethyl)-5H-pyrimido[1,2-a][1,4]benzodiazepin-3-one], for which, in assay [1], the inhibition constant (Ki) was 6090 nM. At h-GABA-A α2β2γ1, the “Efficacy (GABA) %” value was found to be 70% and the “Fold increase h-GABA-A α2β2γ1 oocyte @ 30-fold Ki” value was 1.7.
Taken in the same sequence, the figures for `C[C@@H]1N=C(c2c(F)cccc2F)c2c(ccc(C(F)(F)F)c2Cl)-n2ccc(=O)nc21` [Example 10, (5S)-8-chloro-7-(2,6-difluorophenyl)-5-methyl-9-(trifluoromethyl)-5H-pyrimido[1,2-a][1,4]benzodiazepin-3-one] were 6120 nM, 164% and 2.64.
Taken in the same sequence, the figures for `O=c1ccn2c(n1)CN=C(c1c(F)cccc1F)c1c-2ccc(Cl)c1Cl` [Example 2, 8,9-dichloro-7-(2,6-difluorophenyl)-5H-pyrimido[1,2-a][1,4]benzodiazepin-3-one] were 462 nM, 88% and 1.88.
Turning to `CCOCCc1cn2c(nc1=O)CN=C(c1c(F)cccc1F)c1c-2ccc(Cl)c1Cl` [Example 24, 8,9-dichloro-7-(2,6-difluorophenyl)-2-(2-ethoxyethyl)-5H-pyrimido[1,2-a][1,4]benzodiazepin-3-one], the Ki in assay [1] (setting [2]) came out at 1820 nM. In addition, on h-GABA-A α2β2γ1, the “Efficacy (GABA) %” value is 120% and the “Fold increase h-GABA-A α2β2γ1 oocyte @ 30-fold Ki” value turned out to be 2.20.
On to `C[C@@H]1N=C(c2c(F)cccc2F)c2c(ccc(C(F)(F)F)c2Cl)-n2cc(C(=O)NC3CC3)c(=O)nc21` [Example 28, (5S)-8-chloro-N-cyclopropyl-7-(2,6-difluorophenyl)-5-methyl-3-oxo-9-(trifluoromethyl)-5H-pyrimido[1,2-a][1,4]benzodiazepine-2-carboxamide], for which the inhibition constant Ki in assay [1] (setting [2]) came to 11200 nM. Further, on h-GABA-A α2β2γ1, the “Efficacy (GABA) %” value turned out to be 35% and the “Fold increase h-GABA-A α2β2γ1 oocyte @ 30-fold Ki” value worked out at 1.35.
Consider `C[C@@H]1N=C(c2c(F)cccc2F)c2c(ccc(Cl)c2Cl)-n2ccc(=O)nc21` [Example 4, (5S)-8,9-dichloro-7-(2,6-difluorophenyl)-5-methyl-5H-pyrimido[1,2-a][1,4]benzodiazepin-3-one], for which, in assay [1], the affinity, expressed as Ki, was 912 nM. Moreover, on h-GABA-A α2β2γ1, the “Efficacy (GABA) %” value worked out at 105% and the “Fold increase h-GABA-A α2β2γ1 oocyte @ 30-fold Ki” value is listed as 2.05.
On to `CCOCCc1cn2c(nc1=O)[C@H](C)N=C(c1c(F)cccc1F)c1c-2ccc(Cl)c1Cl` [Example 21, (5S)-8,9-dichloro-7-(2,6-difluorophenyl)-2-(2-ethoxyethyl)-5-methyl-5H-pyrimido[1,2-a][1,4]benzodiazepin-3-one], for which the Ki in assay [1] (setting [2]) turned out to be 1440 nM. Further, at h-GABA-A α2β2γ1, the “Efficacy (GABA) %” value is given as 113% and the “Fold increase h-GABA-A α2β2γ1 oocyte @ 30-fold Ki” value is 2.13.
Taken in the same sequence, the figures for `CCO/C=C/c1cn2c(nc1=O)CN=C(c1c(F)cccc1F)c1c-2ccc(Cl)c1Cl` [Example 22, 8,9-dichloro-7-(2,6-difluorophenyl)-2-[(E)-2-ethoxyvinyl]-5H-pyrimido[1,2-a][1,4]benzodiazepin-3-one] were 1130 nM, 113% and 2.13.
Molecule `Cc1cn2c(nc1=O)[C@H](C)N=C(c1c(F)cccc1F)c1c-2ccc(C(F)(F)F)c1Cl` [Example 9, (5S)-8-chloro-7-(2,6-difluorophenyl)-2,5-dimethyl-9-(trifluoromethyl)-5H-pyrimido[1,2-a][1,4]benzodiazepin-3-one] came in with an inhibitory constant (Ki) in assay [1] of 5950 nM. At h-GABA-A α2β2γ1, the “Efficacy (GABA) %” value is listed as 99% and the “Fold increase h-GABA-A α2β2γ1 oocyte @ 30-fold Ki” value is 1.99.
As for `CCO/C=C/c1cn2c(nc1=O)CN=C(c1c(F)cccc1F)c1c-2ccc(C(F)(F)F)c1Cl` [Example 25, 8-chloro-7-(2,6-difluorophenyl)-2-[(E)-2-ethoxyvinyl]-9-(trifluoromethyl)-5H-pyrimido[1,2-a][1,4]benzodiazepin-3-one], the Ki in assay [1] (setting [2]) came to 14700 nM. At h-GABA-A α2β2γ1, the “Efficacy (GABA) %” value is 81% and the “Fold increase h-GABA-A α2β2γ1 oocyte @ 30-fold Ki” value is reported as 1.81.
For the molecule `C[C@@H]1N=C(c2c(F)cccc2F)c2c(ccc(Br)c2Cl)-n2ccc(=O)nc21` [Example 13, (5S)-9-bromo-8-chloro-7-(2,6-difluorophenyl)-5-methyl-5H-pyrimido[1,2-a][1,4]benzodiazepin-3-one], in assay [1], the Ki was determined as 607 nM. Further, on h-GABA-A α2β2γ1, the “Efficacy (GABA) %” value worked out at 70% and the “Fold increase h-GABA-A α2β2γ1 oocyte @ 30-fold Ki” value was 1.7.
Consider `CCOCCc1cn2c(nc1=O)[C@H](C)N=C(c1c(F)cccc1F)c1c-2ccc(C(F)(F)F)c1Cl` [Example 20, (5S)-8-chloro-7-(2,6-difluorophenyl)-2-(2-ethoxyethyl)-5-methyl-9-(trifluoromethyl)-5H-pyrimido[1,2-a][1,4]benzodiazepin-3-one], for which, in assay [1] (setting [2]), the Ki was determined as 8880 nM. For the same molecule, at h-GABA-A α2β2γ1, the “Efficacy (GABA) %” value was determined as 113% and the “Fold increase h-GABA-A α2β2γ1 oocyte @ 30-fold Ki” value turned out to be 2.13.
Taken in the same sequence, the figures for `CCOCCc1cn2c(nc1=O)CN=C(c1c(F)cccc1F)c1c-2ccc(C(F)(F)F)c1Cl` [Example 26, 8-chloro-7-(2,6-difluorophenyl)-2-(2-ethoxyethyl)-9-(trifluoromethyl)-5H-pyrimido[1,2-a][1,4]benzodiazepin-3-one] were more than 30000 nM, 113% and 2.13.
